The values that follow come from US20230077896A1, “MICROBIAL LIPID PRODUCTION UTILIZING POST-FERMENTATION INDUSTRIAL WASTE STREAM FEEDSTOCKS” (C16 Biosciences, Inc., priority 2020, published 2023).

Molecules are shown by their SMILES. Like-named read-outs stand apart in the source and are kept apart here.

Test [1] concerns Aspergillus fumigatus. The settings on record: Ryan et al. 2011; cited from earlier work.
Test [2] concerns Eutypa lata. Particulars: as low as; lowered growth rate even after renewal of culture medium; cited from earlier work.
Test [3] has as its system Saccharomyces cerevisiae. Particulars: concentrations in the mM range; cited from earlier work.
In test [4] the test system is R. toruloides strain A, R. toruloides strain B. Kind of test: Batch fermentation with glycerol supplement, R. toruloides. Format: cell-based, Rhodosporidium toruloides. The settings on record: 50 g/L glycerol added to 30% corn stillage syrup feedstock, 6 days. The source says:
(§1) For the purposes of this example, the exemplary feedstock employed was a 30% corn stillage syrup-based feedstock, comprising 30% v/v corn stillage syrup, with insoluble components removed via centrifugation, diluted in deionized water.
(§2) Four strains of oleaginous microorganisms were selected to investigate the potential of the exemplary feedstock to support the growth of oleaginous microorganisms: R. toruloides strain A, R. toruloides strain B, Y. lipolytica strain po 1 g, and L. starkeyi strain CBS 1807. As a control, a canonical non-oleaginous yeast, P. pastoris strain X33, was included for comparison.
(§3) Fermentations were run in batch format for 6 days. Dry cell weight, oil titer and lipid content were evaluated as described in Example 5.
(§4) 50 g/L glycerol was added to the feedstock and fermentations were again run for 6 days. Dry cell weight and oil titer were evaluated and compared to the results of the batch fermentation.

The test system of test [5] is Y. lipolytica strain po 1 g. In words: Batch fermentation with glycerol supplement, Y. lipolytica. Particulars: 50 g/L glycerol added to 30% corn stillage syrup feedstock, 6 days. Format: cell-based, Yarrowia lipolytica.
Source text: as §1, §2, §3, §4

The test system of test [6] is L. starkeyi strain CBS 1807. In words: Batch fermentation with glycerol supplement, L. starkeyi. Format: cell-based, Lipomyces starkeyi. The settings on record: 50 g/L glycerol added to 30% corn stillage syrup feedstock, 6 days.
Source text: as §1, §2, §3, §4

The subject of test [7] is Trichophyton rubrum. Particulars: Kamp et al., Mycoses 2005; cited from earlier work.
The subject of test [8] is Pantoea agglomerans. The settings on record: at concentrations of 10 ppm, single inhibitor; cited from earlier work.
Test [9] concerns Fusarium avenaceum. The settings on record: cited from earlier work.
Test [10] has as its system microorganism growth. Particulars: tens of micromolar, e.g.; cited from earlier work.
Test [11] deals with ethanol-producing yeast and bacteria. The settings on record: as low as; cited from earlier work.
For test [12], the system named is Pseudoperonospora cubensis. Particulars: Zhu et al. 2018; cited from earlier work.
For test [13], the system named is R. toruloides strain A. Kind of test: 4-hydroxybenzaldehyde spike-in titration in YPG media, R. toruloides. The test is classed as cell-based, Rhodosporidium toruloides.
The subject of test [14] is Y. lipolytica strain poll g. Kind of test: 4-hydroxybenzaldehyde spike-in titration in YPG media, Y. lipolytica. Format: cell-based, Yarrowia lipolytica. The settings on record: concentrations tested 1 μM-100 mM.
Test [15] has as its system Trichosporon cutaneuin. The settings on record: Wang et al. 2016; cited from earlier work.
Test [16] deals with Rhodosporidium toruloides. The settings on record: Hu et al. 2009; cited from earlier work.
Test [17] concerns S. cerevisiae. In words: Inhibition of ethanol production by S. cerevisiae (Banergee et al.). The settings on record: molar conversion in parentheses. Format: cell-based, Saccharomyces cerevisiae. As to the method:
In some embodiments, the feedstock comprises furfural. Furfural is also known as furan-2-carboxaldehyde, feral, furfuraldehyde, 2-furaldehyde, and pyromucic aldehyde. Within the art, furfural is a well-known and potent inhibitor of microbial fermentation. […] See also, Sitepu et al., “Carbon source utilization and inhibitor tolerance of 45 oleaginous yeast species,” J Ind Microbiol Biotechnol 2014;41(7):1061-1070. In some embodiments, the feedstock comprises at least 10 μM, 20 μM, 30 μM, 40 μM, 50 μM, 60 μM, 70 μM, 80 μM, 90 μM, 100 μM, 200 μM, 300 μM, 400 μM, 500 μM, 600 μM, 700 μM, 800 μM, 900 μM, 1 mM, 2 mM, 3 mM, 4 mM, 5 mM, 6 mM, 7 mM, 8 mM, 9 mM, 10 mM, 20 mM, 30 mM, 40 mM, 50 mM, 60 mM, 70 mM, 80 mM, 90 mM, or 100 mM furfural, or any ranges or subranges therebetween. In some embodiments, the feedstock comprises at least 10 μM furfural.

In test [18] the test system is S. cerevisiae. The settings on record: cited from earlier work.

Consider `O=C(O)c1ccccc1O` [salicylic acid], for which the inhibitory concentration in test [1] was 0.25 mg/mL. Moreover, the “concentration causing fungistatic effects in Eutypa lata” value in test [2] was 1 mM. Also, in [3], the “effects against Saccharomyces cerevisiae” value is “fungicidal effects”.
As to `OCC(O)CO` [glycerol], in test [4], the “growth (DCW) with added glycerol vs without” value was “dramatically increased” and the “oil production with added glycerol vs without” value is “dramatically increased”. In test [5], the “growth (DCW) with added glycerol” value is recorded as “significantly less growth” and the “oil titer with added glycerol” value is on record as “only marginally improved”. For the same molecule, in [6], the “growth (DCW) with added glycerol” value is “significantly less growth” and the “oil titer with added glycerol” value is given as “only marginally improved”.
On to `NCC(=O)CCC(=O)O` [5-aminolevulinic acid], for which the “concentration showing inhibition of Trichophyton rubrum” value in test [7] is recorded as “above 10 mM”.
As to `CC1(O)CCOC(=O)C1` (racemic) [mevalonic acid lactone, 4-Hydroxy-4-methyltetrahydro-2H-pyran-2-one], the “inhibition of growth of Pantoea agglomerans” value in [8] is on record as 10-15%. Further, the “growth of Fusarium avenaceum” value in [9] is listed as “inhibit the growth”. In addition, the “concentration at which it can act as an inhibitor for microorganism growth” value in [10] was 67 µM.
For `O=C(O)C(O)Cc1ccc(O)cc1` (centres unmarked) [Hydroxyphenyllactic acid, 2-Hydroxy-3-(p-hydroxyphenyl)propionic acid], in test [1], the inhibitory concentration is 5 mg/mL.
With `O=Cc1ccc(CO)o1` [HMF, 5-(hydroxymethyl)furfural], the “concentration of significant inhibition of growth and ethanol production” value in [11] is 8 mM.
As to `O=C1CC[C@@H](C(=O)O)N1` [Pyroglutamic acid], the “inhibitor of fungal species” value in test [12] is “known inhibitor”.
For the molecule `O=Cc1ccc(O)cc1` [4-hydroxybenzaldehyde], the “increase in oil titer as compared to the no inhibitor control” value in test [13] (100 μM condition) and in test [13] (10 mM condition) was “over 50%” in each case. In addition, the “growth (DCW) of the R. toruloides strain” value in test [13] (100 mM inhibitor in YPG media) is listed as “inhibited altogether”; in test [13] (all concentrations tested (1 μM-10 mM) except 100 mM, YPG media, vs no inhibitor control) it was “unaffected”. Besides, the “effect on oil titer of R. toruloides” value in test [13] (increasing concentrations between 1 μM and 10 mM) is “lipogenic effect”. Also, the “effect on growth of the Y. lipolytica strain” value in [14] was “no statistically significant effect”. The “effect on oil production of the Y. lipolytica strain” value in test [14] is “no statistically significant effect”. The “concentration showing inhibition of Trichosporon cutaneum” value in test [15] is recorded as 16 mM. For the same molecule, the “concentration showing inhibition of Rhodosporidium toruloides” value in [16] was 9 mM.
As to `O=Cc1ccco1` [furfural], the “concentration inhibiting ethanol production” value in [17] (as low as) is listed as around 10 mM; in test [18] (as low as), 0.5 g/L. Moreover, the figures for the “concentration of complete inhibition of ethanol production” value in test [17] (complete inhibition) and in test [18] (complete inhibition) were around 40 mM and 4 g/L, respectively.
